The results in this text go back to patent publication US8273724B2, “Melanoma antigens and their use in diagnostic and therapeutic methods” (The United States of America, as represented by the …, priority 1994, dated 2012).

Where a SMILES comes first, the peptide text is derived from it.

This experiment concerns T2 cell lines preincubated with peptide. The experiment in a line: Recognition of modified peptides by natural epitope (M9-2, G9-154, G9-209, G9-280) reactive T-cells, 51Cr release on peptide-pulsed T2 cells (Example 5). It is filed as cell-based, human. How it is done:
Assessment of antigen recognition by CTL. ^51Cr release cytotoxic assays were performed to detect the recognition of peptide and melanoma cells by CTL. To analyze peptide recognition, T2 cell lines were preincubated for 2 h at 37° C. with 1 ug/ml peptide, washed and used as target cells in a ^51Cr release cytotoxic assay. The melanoma lines 624mel was established in our laboratory (See Example 1).
In order to make more immunogenic peptides for induction of anti-melanoma T-cells than natural melanoma epitopes, a variety of peptides in which at least 1 amino acid was changed based on consensus motifs in peptides binding to a specific MHC Class I allele Falk, et al. (1991) Nature 351:290; Kubo et al. (1994) J. Immunol 152:3913; Parker, K. et al. (1992) Journal of Immunology 149:3580; Ruppert, J. et al. (1993) Cell 74:929-937) (Tables 14, 15, 16, and 17). […] By changing amino acid at the 1st, 2nd, 3rd or 9th positions which are important for HLA-A2 binding to the peptide, but less important for recognition by T-cell receptors, artificial peptides which can bind to HLA-A2.1 with higher affinity and still be recognized by natural epitope specific T-cells may be generated.

In the case of `CC[C@H](C)[C@H](NC(=O)CNC(=O)[C@@H](NC(=O)[C@H](Cc1ccc(O)cc1)NC(=O)[C@H](CC(C)C)NC(=O)[C@H](C)N)[C@@H](C)CC)C(=O)N[C@@H](CC(C)C)C(=O)N[C@H](C(=O)N[C@H](C(=O)O)C(C)C)[C@@H](C)O` [M9-2-2L3Y], the “Recognition by M9-2 reactive T-cell” value is “−”.

With `CC[C@H](C)[C@H](NC(=O)CNC(=O)[C@@H](NC(=O)[C@H](Cc1ccccc1)NC(=O)[C@H](C)NC(=O)[C@H](C)N)[C@@H](C)CC)C(=O)N[C@@H](CC(C)C)C(=O)N[C@H](C(=O)N[C@H](C(=O)O)C(C)C)[C@@H](C)O` [M9-2-3F], the “Recognition by M9-2 reactive T-cell” value was “−”.

As for `CC[C@H](C)[C@H](NC(=O)CNC(=O)[C@@H](NC(=O)[C@H](Cc1c[nH]c2ccccc12)NC(=O)[C@H](CC(C)C)NC(=O)[C@H](C)N)[C@@H](C)CC)C(=O)N[C@@H](CC(C)C)C(=O)N[C@H](C(=O)N[C@H](C(=O)O)C(C)C)[C@@H](C)O` [M9-2-2L3W], the “Recognition by M9-2 reactive T-cell” value is “−”.

Consider `CC[C@H](C)[C@H](N)C(=O)N[C@@H](CC(C)C)C(=O)N[C@@H](C)C(=O)N[C@@H](CCC(N)=O)C(=O)N[C@H](C(=O)N1CCC[C@H]1C(=O)N[C@@H](Cc1ccccc1)C(=O)N[C@@H](CO)C(=O)N[C@H](C(=O)O)C(C)C)C(C)C` [G9-209-2L3A], for which the “Recognition by G9-209 reactive T-cell” value is “−”.

For `CC[C@H](C)[C@H](NC(=O)CNC(=O)[C@H](CCSC)NC(=O)[C@H](C)N)C(=O)NCC(=O)N[C@H](C(=O)N[C@@H](CC(C)C)C(=O)N[C@H](C(=O)N[C@H](C(=O)O)C(C)C)[C@@H](C)O)[C@@H](C)CC` [M9-2-2M], the “Recognition by M9-2 reactive T-cell” value is “−”.

For the compound `CC[C@H](C)[C@H](NC(=O)CNC(=O)[C@H](CC(C)C)NC(=O)[C@@H](N)Cc1c[nH]c2ccccc12)C(=O)NCC(=O)N[C@H](C(=O)N[C@@H](CC(C)C)C(=O)N[C@H](C(=O)N[C@H](C(=O)O)C(C)C)[C@@H](C)O)[C@@H](C)CC` [M9-2-1W2L], the “Recognition by M9-2 reactive T-cell” value is “−”.

For `CC[C@H](C)[C@H](N)C(=O)N[C@@H](CC(C)C)C(=O)N[C@@H](Cc1ccc(O)cc1)C(=O)N[C@@H](CCC(N)=O)C(=O)N[C@H](C(=O)N1CCC[C@H]1C(=O)N[C@@H](Cc1ccccc1)C(=O)N[C@@H](CO)C(=O)N[C@H](C(=O)O)C(C)C)C(C)C` [G9-209-2L3Y] (H-ILYQVPFSV-OH; N-terminus and C-terminus assumed), the “Recognition by G9-209 reactive T-cell” value is recorded as “−”.

On to `CC[C@H](C)[C@H](NC(=O)CNC(=O)[C@@H](NC(=O)[C@H](Cc1c[nH]c2ccccc12)NC(=O)[C@H](C)NC(=O)[C@H](C)N)[C@@H](C)CC)C(=O)N[C@@H](CC(C)C)C(=O)N[C@H](C(=O)N[C@H](C(=O)O)C(C)C)[C@@H](C)O` [M9-2-3W], for which the “Recognition by M9-2 reactive T-cell” value is listed as “−”.

As for `CC[C@H](C)[C@H](NC(=O)CNC(=O)[C@H](C)NC(=O)[C@@H](N)Cc1c[nH]c2ccccc12)C(=O)NCC(=O)N[C@H](C(=O)N[C@@H](CC(C)C)C(=O)N[C@H](C(=O)N[C@H](C(=O)O)C(C)C)[C@@H](C)O)[C@@H](C)CC` [M9-2-1W], the “Recognition by M9-2 reactive T-cell” value is “+ (+, recognized)”.

On to `CC(C)C[C@H](NC(=O)[C@H](C)N)C(=O)N[C@@H](Cc1c[nH]c2ccccc12)C(=O)NCC(=O)N[C@@H](CCC(N)=O)C(=O)N[C@@H](Cc1ccc(O)cc1)C(=O)N[C@@H](Cc1c[nH]c2ccccc12)C(=O)N[C@@H](CCC(N)=O)C(=O)N[C@H](C(=O)O)C(C)C` [G9-154-1A2L] (H-ALWGQYWQV-OH; N-terminus and C-terminus assumed), for which the “Recognition by G9-154 reactive T-cell” value is given as “+ (+, recognized)”.

As to `CC[C@H](C)[C@H](NC(=O)CNC(=O)[C@@H](NC(=O)[C@H](C)N)[C@@H](C)CC)C(=O)NCC(=O)N[C@H](C(=O)N[C@@H](CC(C)C)C(=O)N[C@H](C(=O)N[C@H](C(=O)O)C(C)C)[C@@H](C)O)[C@@H](C)CC` [M9-2-2I], the “Recognition by M9-2 reactive T-cell” value is “−”.

`CC[C@H](C)[C@H](N)C(=O)N[C@@H](CC(C)C)C(=O)N[C@@H](CCSC)C(=O)N[C@@H](CCC(N)=O)C(=O)N[C@H](C(=O)N1CCC[C@H]1C(=O)N[C@@H](Cc1ccccc1)C(=O)N[C@@H](CO)C(=O)N[C@H](C(=O)O)C(C)C)C(C)C` [G9-209-2L3M]: the “Recognition by G9-209 reactive T-cell” value is listed as “−”.

Consider `CC[C@H](C)[C@H](N)C(=O)N[C@@H](CC(C)C)C(=O)N[C@@H](Cc1ccccc1)C(=O)N[C@@H](CCC(N)=O)C(=O)N[C@H](C(=O)N1CCC[C@H]1C(=O)N[C@@H](Cc1ccccc1)C(=O)N[C@@H](CO)C(=O)N[C@H](C(=O)O)C(C)C)C(C)C` [G9-209-2L3F], for which the “Recognition by G9-209 reactive T-cell” value is recorded as “−”.

Consider `CC[C@H](C)[C@H](N)C(=O)N[C@H](C(=O)N[C@@H](Cc1ccccc1)C(=O)N[C@@H](CCC(N)=O)C(=O)N[C@H](C(=O)N1CCC[C@H]1C(=O)N[C@@H](Cc1ccccc1)C(=O)N[C@@H](CO)C(=O)N[C@H](C(=O)O)C(C)C)C(C)C)[C@@H](C)O` [G9-209-3F] (H-ITFQVPFSV-OH; N-terminus and C-terminus assumed), for which the “Recognition by G9-209 reactive T-cell” value was “−”.

For `CC[C@H](C)[C@H](N)C(=O)N[C@H](C(=O)N[C@@H](CO)C(=O)N[C@@H](CCC(N)=O)C(=O)N[C@H](C(=O)N1CCC[C@H]1C(=O)N[C@@H](Cc1ccccc1)C(=O)N[C@@H](CO)C(=O)N[C@H](C(=O)O)C(C)C)C(C)C)[C@@H](C)O` [G9-209-3S], the “Recognition by G9-209 reactive T-cell” value is given as “−”.

Turning to `CC[C@H](C)[C@H](N)C(=O)N[C@H](C(=O)N[C@@H](Cc1ccc(O)cc1)C(=O)N[C@@H](CCC(N)=O)C(=O)N[C@H](C(=O)N1CCC[C@H]1C(=O)N[C@@H](Cc1ccccc1)C(=O)N[C@@H](CO)C(=O)N[C@H](C(=O)O)C(C)C)C(C)C)[C@@H](C)O` [G9-209-3Y] (H-ITYQVPFSV-OH; N-terminus and C-terminus assumed), the “Recognition by G9-209 reactive T-cell” value was “−”.

For `CC[C@H](C)[C@H](NC(=O)CNC(=O)[C@H](C)NC(=O)[C@@H](N)Cc1ccc(O)cc1)C(=O)NCC(=O)N[C@H](C(=O)N[C@@H](CC(C)C)C(=O)N[C@H](C(=O)N[C@H](C(=O)O)C(C)C)[C@@H](C)O)[C@@H](C)CC` [M9-2-1Y], the “Recognition by M9-2 reactive T-cell” value is given as “−”.

With `CC[C@H](C)[C@H](N)C(=O)N[C@H](C(=O)N[C@@H](CCSC)C(=O)N[C@@H](CCC(N)=O)C(=O)N[C@H](C(=O)N1CCC[C@H]1C(=O)N[C@@H](Cc1ccccc1)C(=O)N[C@@H](CO)C(=O)N[C@H](C(=O)O)C(C)C)C(C)C)[C@@H](C)O` [G9-209-3M] (H-ITMQVPFSV-OH; N-terminus and C-terminus assumed), the “Recognition by G9-209 reactive T-cell” value is recorded as “−”.

Turning to `CC[C@H](C)[C@H](NC(=O)CNC(=O)[C@H](CC(C)C)NC(=O)[C@@H](N)Cc1ccccc1)C(=O)NCC(=O)N[C@H](C(=O)N[C@@H](CC(C)C)C(=O)N[C@H](C(=O)N[C@H](C(=O)O)C(C)C)[C@@H](C)O)[C@@H](C)CC` [M9-2-1F2L], the “Recognition by M9-2 reactive T-cell” value is on record as “−”.

For `CC[C@H](C)[C@H](N)C(=O)N[C@@H](CC(C)C)C(=O)N[C@@H](CO)C(=O)N[C@@H](CCC(N)=O)C(=O)N[C@H](C(=O)N1CCC[C@H]1C(=O)N[C@@H](Cc1ccccc1)C(=O)N[C@@H](CO)C(=O)N[C@H](C(=O)O)C(C)C)C(C)C` [G9-209-2L3S] (H-ILSQVPFSV-OH; N-terminus and C-terminus assumed), the “Recognition by G9-209 reactive T-cell” value is “−”.

For `CC[C@H](C)[C@H](N)C(=O)N[C@H](C(=O)N[C@@H](Cc1c[nH]c2ccccc12)C(=O)N[C@@H](CCC(N)=O)C(=O)N[C@H](C(=O)N1CCC[C@H]1C(=O)N[C@@H](Cc1ccccc1)C(=O)N[C@@H](CO)C(=O)N[C@H](C(=O)O)C(C)C)C(C)C)[C@@H](C)O` [G9-209-3W], the “Recognition by G9-209 reactive T-cell” value was “−”.

Regarding `CC[C@H](C)[C@H](NC(=O)CNC(=O)[C@@H](NC(=O)[C@H](Cc1ccccc1)NC(=O)[C@H](CC(C)C)NC(=O)[C@H](C)N)[C@@H](C)CC)C(=O)N[C@@H](CC(C)C)C(=O)N[C@H](C(=O)N[C@H](C(=O)O)C(C)C)[C@@H](C)O` [M9-2-2L3F], the “Recognition by M9-2 reactive T-cell” value is “−”.

As to `CC[C@H](C)[C@H](N)C(=O)N[C@H](C(=O)N[C@@H](C)C(=O)N[C@@H](CCC(N)=O)C(=O)N[C@H](C(=O)N1CCC[C@H]1C(=O)N[C@@H](Cc1ccccc1)C(=O)N[C@@H](CO)C(=O)N[C@H](C(=O)O)C(C)C)C(C)C)[C@@H](C)O` [G9-209-3A], the “Recognition by G9-209 reactive T-cell” value is “−”.

Turning to `CC[C@H](C)[C@H](NC(=O)CNC(=O)[C@H](CC(C)C)NC(=O)[C@@H](N)CCCCN)C(=O)NCC(=O)N[C@H](C(=O)N[C@@H](CC(C)C)C(=O)N[C@H](C(=O)N[C@H](C(=O)O)C(C)C)[C@@H](C)O)[C@@H](C)CC` [M9-2-1K2L], the “Recognition by M9-2 reactive T-cell” value is “−”.

As for `CC[C@H](C)[C@H](NC(=O)CNC(=O)[C@H](CC(C)C)NC(=O)[C@@H](N)Cc1ccc(O)cc1)C(=O)NCC(=O)N[C@H](C(=O)N[C@@H](CC(C)C)C(=O)N[C@H](C(=O)N[C@H](C(=O)O)C(C)C)[C@@H](C)O)[C@@H](C)CC` [M9-2-1Y2L], the “Recognition by M9-2 reactive T-cell” value is on record as “−”.

On to `CC[C@H](C)[C@H](NC(=O)CNC(=O)[C@H](CCSC)NC(=O)[C@@H](N)CCCCN)C(=O)NCC(=O)N[C@H](C(=O)N[C@@H](CC(C)C)C(=O)N[C@H](C(=O)N[C@H](C(=O)O)C(C)C)[C@@H](C)O)[C@@H](C)CC` [M9-2-1K2M], for which the “Recognition by M9-2 reactive T-cell” value is “−”.

On to `CC[C@H](C)[C@H](NC(=O)CNC(=O)[C@@H](NC(=O)[C@@H](N)CCCCN)[C@@H](C)CC)C(=O)NCC(=O)N[C@H](C(=O)N[C@@H](CC(C)C)C(=O)N[C@H](C(=O)N[C@H](C(=O)O)C(C)C)[C@@H](C)O)[C@@H](C)CC` [M9-2-1K2I], for which the “Recognition by M9-2 reactive T-cell” value is “−”.
